Data taken from US11884750B2, “Cationic cell penetrating peptides and the use thereof” (CELLTROY CO., LTD., priority 2021, dated 2024).

How the values were obtained:
SH-SY5Y cells = test: Cell penetration efficiency in human neuroblastoma cells, 4 μM, flow cytometry; type: cell-based; conditions: one hour; for Score / Score/TAT: 4 μM FITC-conjugated peptide; for Score: intracellular fluorescence by flow cytometry; for Score/TAT: ratio to FITC-conjugated TAT; for cell permeability compared with TAT: 4 μM FITC-conjugated CPP, flow cytometry
Procedure: The cell penetration efficiency of the cationic CPPs selected in Example 1 was evaluated in neuroblastoma. In further detail, SH-SYSY cells, which is a human neuroblastoma cell line, were seeded in 24-well plates to have a cell density of 1×10^7 cells/well, and cultured in 10% FBS-added DMEM under conditions of 37° C. and 5% CO2 for 24 hours. In addition, the cells were treated with 4 μM each of FITC-conjugated CPPs (C12, C14, C16, C31, C52, and C67), or FITC-conjugated TAT, and incubated for one hour. After the termination of the incubation, the cells were transferred to a sterile tube using 0.25% trypsin and centrifuged to remove the medium. Afterward, the cells were washed with 500 μL of D-PBS twice to completely remove the medium, and finally, resuspended in 400 μL of D-PBS and intracellular fluorescence was measured by flow cytometry (FACSCanto II).
(§1) To evaluate the cell penetration efficiency of the additionally selected cationic CPPs, an experiment was conducted using human epidermal cells or human neuroblastoma cells. In further detail, HaCAT cells, which is a human epidermal cell line, or SH-SYSY cells, which is a human neuroblastoma cell line, were seeded in 24-well plates to have a cell density of 1×10^7 cells/well and cultured in 10% FBS-added DMEM under conditions of 37° C. and 5% CO2 for 24 hours. In addition, the cells were treated with 4 μM each of FITC-conjugated peptides and FITC-conjugated TAT for one hour. After the completion of the culture, the cells were transferred to a sterile tube using 0.25% trypsin and centrifuged to remove the medium. Afterward, the cells were washed with 500 μL of D-PBS twice to completely remove the medium, and finally, resuspended in 400 μL of D-PBS and intracellular fluorescence was measured by flow cytometry (FACSCanto II).
(§2) Subsequently, to confirm whether the CPPs according to the present invention show excellent cell permeability into different types of cells/tissues, various tissue-derived cells were treated with biologically active molecule-conjugated CPPs to compare its delivery capacity with TAT. As in the previous examples, each cell was aliquoted in a plate at an appropriate density, and cultured in a 10% FBS-added medium under a condition of 37° C. and 5% CO2 for 24 hours. Subsequently, the cells were treated with 4 μM each of FITC-conjugated CPP or FITC-conjugated TAT and incubated for one hour. After the completion of the incubation, the cells were transferred to a sterile tube using 0.25% trypsin and centrifuged to remove the medium. Afterward, the cells were washed with 500 μL of D-PBS twice to completely remove the medium, and finally, resuspended in 400 μL of D-PBS and intracellular fluorescence was measured by flow cytometry (FACSCanto II).

SNU-46 cell line = test: Cell penetration efficiency using laryngeal cells; type: cell-based; conditions: SNU-46 laryngeal cells, 4 μM FITC-conjugated CPP, one hour
Procedure: as §2

HeLa cell line = test: Cell penetration efficiency using cervical cancer cells; type: cell-based; conditions: 4 μM FITC-conjugated CPP, one hour
Procedure: as §2

HGB cell line = test: Cell penetration efficiency in glioblastoma cells; type: cell-based, human; conditions: 4 μM FITC-conjugated CPP, one hour
Procedure: as §2

HaCAT cells = test: Cell penetration efficiency in human epidermal (skin) cells, 4 μM, flow cytometry; type: cell-based; conditions: 4 μM FITC-conjugated CPP, one hour
Procedure: The cell penetration efficiency of the cationic CPPs selected in Example 1 was evaluated using human epidermal cells. In further detail, HaCAT cells, which is a human epidermal cell line, were seeded in 24-well plates to have a cell density of 1×10^7 cells/well, and cultured in 10% FBS-added DMEM under conditions of 37° C. and 5% CO2 for 24 hours. Subsequently, the cells were treated 4 μM each of the FITC-conjugated CPP or FITC-conjugated TAT, and incubated for one hour. After the termination of the incubation, the cells were transferred to a sterile tube using 0.25% trypsin, and the medium was removed through centrifugation. Afterward, the cells were washed with 500 μL of D-PBS twice to completely remove the medium, and finally, resuspended in 400 μL of D-PBS and intracellular fluorescence was measured by flow cytometry (FACSCanto II).
as §1, §2

HDF cell line = test: Cell penetration efficiency in skin cells (HDF); type: cell-based; conditions: 4 μM FITC-conjugated CPP, one hour
Procedure: as §2

monocytes = test: Cell penetration efficiency using monocytes; type: cell-based; conditions: 4 μM FITC-conjugated CPP, one hour
Procedure: as §2

HEK293T cell line = test: Cell penetration efficiency using kidney cells; type: cell-based; conditions: 4 μM FITC-conjugated CPP, one hour
Procedure: as §2

A-427 cell line = test: Cell penetration efficiency using lung cells; type: cell-based; conditions: A-427 lung cells, 4 μM FITC-conjugated CPP, one hour
Procedure: as §2

HT1080 cell line = test: Cell penetration efficiency using connective tissue (fibrosarcoma) cells; type: cell-based; conditions: 4 μM FITC-conjugated CPP, one hour
Procedure: as §2

Sequence	Score (SH-SY5Y cells)	Score/TAT (SH-SY5Y cells)	cell permeability compared with TAT (SNU-46 cell line)	cell permeability compared with TAT (HeLa cell line)	cell permeability compared with TAT (HGB cell line)	cell permeability compared with TAT (HaCAT cells)	cell permeability compared with TAT (SH-SY5Y cells)	cell permeability compared with TAT (HDF cell line)	cell permeability compared with TAT (monocytes)	cell permeability compared with TAT (HEK293T cell line)	cell permeability compared with TAT (A-427 cell line)	cell permeability compared with TAT (HT1080 cell line)
RPRRKKQAKRLGKR [C378]	400	0.771	higher cell permeability	higher cell permeability	–	–	–	–	–	–	–	–
ARRLRRRTAKLPAR [C102]	720	1.387	–	–	higher cell permeability	higher cell permeability	higher cell permeability	–	–	–	–	–
RRALKRRAMRARRP [C170]	605	1.166	–	higher cell permeability	higher cell permeability	–	higher cell permeability	higher cell permeability	–	–	–	–
RTRLLRRLRALKPR [C223]	408	0.786	–	higher cell permeability	–	–	–	–	higher cell permeability	–	–	–
RIRALARRRDRRRP [C354]	564	1.087	–	higher cell permeability	higher cell permeability	–	higher cell permeability	–	–	higher cell permeability	higher cell permeability	higher cell permeability
KRKLKVRRKLREPR [C115]	563	1.085	–	–	–	–	higher cell permeability	–	higher cell permeability	–	–	–
SVKRRRRRALAKRP [C341]	747	1.439	–	higher cell permeability	higher cell permeability	–	higher cell permeability	–	–	higher cell permeability	–	higher cell permeability
RLREKRRSLKRKRP [C262]	345	0.665	–	higher cell permeability	–	–	–	–	–	higher cell permeability	higher cell permeability	higher cell permeability
RVRAILRRTRRKEP [C236]	395	0.761	–	higher cell permeability	–	–	–	–	–	higher cell permeability	–	higher cell permeability
ARVRARLRRRRIEP [C229]	536	1.033	–	higher cell permeability	–	–	higher cell permeability	–	–	higher cell permeability	–	–
RVRALARRRRQARP [C282]	441	0.850	–	higher cell permeability	–	–	–	–	–	higher cell permeability	higher cell permeability	higher cell permeability
RVRTLLRRRRTERP [C402]	437	0.842	–	–	–	–	–	–	–	–	higher cell permeability	higher cell permeability
RVRSLARRARRRTP [C401]	425	0.819	–	–	–	–	–	–	–	–	higher cell permeability	higher cell permeability
ARKNRMARQRRLRP [C45]	570	1.098	–	–	–	–	higher cell permeability	–	–	–	higher cell permeability	higher cell permeability
RALRRRLHRQRKLP [C355]	497	0.958	–	higher cell permeability	higher cell permeability	–	–	–	–	higher cell permeability	–	–
RRALRRRAQRRGAP [C181]	682	1.314	–	higher cell permeability	higher cell permeability	–	higher cell permeability	higher cell permeability	higher cell permeability	–	–	–
RPIRKLLRQARQRR [C131]	790	1.522	–	higher cell permeability	higher cell permeability	–	higher cell permeability	higher cell permeability	higher cell permeability	–	–	–
RERKRANRKKLKKP [C310]	452	0.871	–	–	higher cell permeability	–	–	–	–	higher cell permeability	–	–
YLRRKLRRRAGEPR [C230]	305	0.588	–	higher cell permeability	–	–	–	–	–	higher cell permeability	–	–
